The source of these data is US12011444B2, “N-substituted indole derivatives as PGE2 receptor modulators” (Idorsia Pharmaceuticals Ltd, priority 2015, dated 2024).

One experiment has as its target PTRGER4 (EP4) (Homo sapiens (Human), UniProt P35408). Kind of experiment: hEP4 b-arrestin assay (PathHunter HEK 293 PTGER4 b-arrestin cells). It counts as cell-based. Summed up:
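Antagonist mode: compound is given 15 min at 37 °C, then 20 nM (final) PGE2 for 120 min, in HEK293 cells stably expressing EP4 fused to ProLink and β-arrestin 2 fused to EA. Recruitment read as β-gal luminescence after 1 h reagent at room temperature, as percent of DMSO control.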

Another experiment has as its target PTGER2 (EP2) (Homo sapiens (Human), UniProt P43116). Kind of experiment: hEP2 b-arrestin assay (PathHunter HEK 293 PTGER2 b-arrestin cells). It counts as cell-based. Summed up:
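Readout is β-galactosidase complementation luminescence, expressed as percent of DMSO control (duplicates). PathHunter HEK293 EP2/β-arrestin 2 cells, grown 24 h, received compound for 15 min at 37 °C before a 120 min challenge with PGE2 at 5 μM final, followed by 1 h detection at room temperature.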

The mark [1] stands for this setting: hEP4 b-arrestin assay (values without asterisk).
The mark [2] stands for this setting: hEP2 b-arrestin assay (values without asterisk).
Where [3] appears, read: antagonistic activity on hEP4, mean where measured multiple times.
Where [4] appears, read: antagonistic activity on hEP2, mean where measured multiple times.

Sequence of PTRGER4 (EP4) (P35408 whole entry, looked up, the tested form may be a part): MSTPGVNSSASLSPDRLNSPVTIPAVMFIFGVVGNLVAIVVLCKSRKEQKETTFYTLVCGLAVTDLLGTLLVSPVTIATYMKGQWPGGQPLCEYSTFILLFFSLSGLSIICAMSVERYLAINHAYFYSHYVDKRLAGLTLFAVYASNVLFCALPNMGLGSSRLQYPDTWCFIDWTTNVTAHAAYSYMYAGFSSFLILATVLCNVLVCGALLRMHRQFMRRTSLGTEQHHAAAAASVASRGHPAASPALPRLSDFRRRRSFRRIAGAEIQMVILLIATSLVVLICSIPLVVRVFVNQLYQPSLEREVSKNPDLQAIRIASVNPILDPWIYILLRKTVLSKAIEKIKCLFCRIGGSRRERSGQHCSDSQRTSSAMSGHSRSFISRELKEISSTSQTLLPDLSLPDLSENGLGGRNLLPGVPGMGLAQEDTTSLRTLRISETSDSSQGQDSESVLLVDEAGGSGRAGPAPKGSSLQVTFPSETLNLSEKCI
Sequence of PTGER2 (EP2) (P43116 whole entry): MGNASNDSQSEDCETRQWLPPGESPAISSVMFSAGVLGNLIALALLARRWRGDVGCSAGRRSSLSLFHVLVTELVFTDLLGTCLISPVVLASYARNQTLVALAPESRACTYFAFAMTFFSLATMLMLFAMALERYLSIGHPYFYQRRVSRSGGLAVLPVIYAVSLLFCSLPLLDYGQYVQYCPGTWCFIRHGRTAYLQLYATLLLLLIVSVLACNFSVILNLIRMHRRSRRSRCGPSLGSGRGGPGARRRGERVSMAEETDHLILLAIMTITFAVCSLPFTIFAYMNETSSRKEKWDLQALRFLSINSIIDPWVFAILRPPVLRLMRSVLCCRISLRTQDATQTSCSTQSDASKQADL

Usually IC50 stands for the concentration at which inhibition is half-maximal. In the case of `CCOC(=O)OCOC(=O)c1sc(-c2cc(NCCn3c(C#N)cc4c(OC)ccc(F)c43)ncn2)cc1OCC` [Example 1046, 5-{6-[2-(2-Cyano-7-fluoro-4-methoxy-indol-1-yl)-ethylamino]-pyrimidin-4-yl}-3-ethoxy-thiophene-2-carboxylic acid ethoxycarbonyloxymethyl ester], the half-inhibitory concentration (IC50) was 5 nM against PTRGER4 (EP4) (setting [1]) and 27 nM on PTGER2 (EP2) (setting [2]).

Take `COc1ccc(F)c2c1cc(C)n2CCNc1cc(-c2ccc(C(=O)O)c(C3CC3)c2)ncn1` [compound 296, 2-Cyclopropyl-4-{6-[2-(7-fluoro-4-methoxy-2-methyl-indol-1-yl)-ethylamino]-pyrimidin-4-yl}-benzoic acid]: the IC50 at PTRGER4 (EP4) (setting [3]) amounted to 259 nM; on PTGER2 (EP2) (setting [4]), 7 nM.

For the compound `COc1ccc(F)c2c1cc(C)n2CCNc1cc(-c2ccc(N3CCCC3=O)cc2)ncn1` [compound 318], the values for the IC50 at PTRGER4 (EP4) (setting [3]) and against PTGER2 (EP2) (setting [4]) were 894 nM and 338 nM, respectively.

On to `CCN1Cc2cc(-c3cc(NCCn4c(C)cc5c(C)ccc(F)c54)ncn3)ccc2C1=O` [compound 206], for which the IC50 at PTRGER4 (EP4) (setting [3]) was found to be 740 nM; against PTGER2 (EP2) (setting [4]) it was 88 nM.

As to `CCNc1cc(-c2cc(NCCn3c(C)cc4c(OC)cccc43)ncn2)cc(Cl)c1C(=O)O` [compound 362, 2-Chloro-6-ethylamino-4-{6-[2-(4-methoxy-2-methyl-indol-1-yl)-ethylamino]-pyrimidin-4-yl}-benzoic acid], the half-maximal inhibitory concentration (IC50) worked out at 281 nM at PTRGER4 (EP4) (setting [3]) and 3 nM on PTGER2 (EP2) (setting [4]).

Turning to `CCCN1Cc2cc(-c3cc(NCCn4c(C)cc5c(OC)cccc54)ncn3)ccc2C1=O` [compound 315, 5-{6-[2-(4-Methoxy-2-methyl-indol-1-yl)-ethylamino]-pyrimidin-4-yl}-2-propyl-2,3-dihydro-isoindol-1-one], the half-inhibitory concentration (IC50) at PTRGER4 (EP4) (setting [3]) was 268 nM; on PTGER2 (EP2) (setting [4]) it was 46 nM.

On to `COc1ccc(F)c2c1cc(C)n2CCNc1cc(-c2ccc(C(=O)O)cc2)ncn1` [compound 109], for which the figures for the IC50 against PTRGER4 (EP4) (setting [3]) and against PTGER2 (EP2) (setting [4]) were 955 nM and 49 nM, respectively.

In the case of `CCOc1cc(-c2cc(NCCn3c(C)cc4c(OC)ccc(F)c43)ncn2)sc1-c1noc(=O)[nH]1` [Example 1054, 3-(3-Ethoxy-5-{6-[2-(7-fluoro-4-methoxy-2-methyl-indol-1-yl)-ethylamino]-pyrimidin-4-yl}-thiophen-2-yl)-[1,2,4]oxadiazol-5(4H)-one], the half-maximal inhibitory concentration (IC50) against PTRGER4 (EP4) (setting [1]) and against PTGER2 (EP2) (setting [2]) was 1 nM in each case.

Turning to `COc1cc(-c2cc(NCCn3c(C#N)cc4c(OC)ccc(F)c43)ncn2)ccc1-c1c[nH]cn1` [Example 818, 7-Fluoro-1-(2-{6-[4-(1H-imidazol-4-yl)-3-methoxy-phenyl]-pyrimidin-4-ylamino}-ethyl)-4-methoxy-1H-indole-2-carbonitrile], the values for the 50% inhibitory concentration (IC50) on PTRGER4 (EP4) (setting [1]) and on PTGER2 (EP2) (setting [2]) were 1 nM and 2 nM, respectively.

Take `COc1ccc(F)c2c1cc(C#N)n2CCNc1cc(-c2c[nH]c3cnccc23)ncn1` [Example 967, 7-Fluoro-4-methoxy-1-{2-[6-(1H-pyrrolo[2,3-c]pyridin-3-yl)-pyrimidin-4-ylamino]-ethyl}-1H-indole-2-carbonitrile]: the half-maximal inhibitory concentration (IC50) against PTRGER4 (EP4) (setting [1]) came out at 17 nM; on PTGER2 (EP2) (setting [2]), 6 nM.

As for `COc1ccc(F)c2c1cc(C)n2CCNc1cc(-c2ccc(-c3cnco3)cc2)ncn1` [compound 202, [2-(7-Fluoro-4-methoxy-2-methyl-indol-1-yl)-ethyl]-[6-(4-oxazol-5-yl-phenyl)-pyrimidin-4-yl]-amine], the IC50 against PTRGER4 (EP4) (setting [3]) is 105 nM; on PTGER2 (EP2) (setting [4]) it was 16 nM.

Consider `COc1ccc(F)c2c1cc(C)n2CCNc1cc(-c2ccc(C(=O)O)c3[nH]ccc23)ncn1` [compound 323, 4-{6-[2-(7-Fluoro-4-methoxy-2-methyl-indol-1-yl)-ethylamino]-pyrimidin-4-yl}-1H-indole-7-carboxylic acid], for which the IC50 on PTRGER4 (EP4) (setting [3]) stood at 708 nM; against PTGER2 (EP2) (setting [4]) it was 18 nM.

Take `COc1cccc2c1cc(C#N)n2CCNc1cc(-c2cc(C(F)(F)F)c(C(=O)O)s2)ncn1` [Example 910, 5-{6-[2-(2-Cyano-4-methoxy-indol-1-yl)-ethylamino]-pyrimidin-4-yl}-3-trifluoromethyl-thiophene-2-carboxylic acid]: the half-inhibitory concentration (IC50) at PTRGER4 (EP4) (setting [1]) was found to be 10 nM; on PTGER2 (EP2) (setting [2]), 23 nM.

As to `COc1cc(-c2cc(NCCn3c(C)cc4c(OC)ccc(F)c43)ncn2)ccc1CO` [compound 130, (4-{6-[2-(7-Fluoro-4-methoxy-2-methyl-indol-1-yl)-ethylamino]-pyrimidin-4-yl}-2-methoxy-phenyl)-methanol], the results for the IC50 against PTRGER4 (EP4) (setting [3]) and against PTGER2 (EP2) (setting [4]) were 78 nM and 4 nM, respectively.

For the compound `COc1ccc(F)c2c1cc(C#N)n2CCNc1cc(-c2ccc(OCC(=O)O)c(OC(F)(F)F)c2)ncn1` [Example 828, (4-{6-[2-(2-Cyano-7-fluoro-4-methoxy-indol-1-yl)-ethylamino]-pyrimidin-4-yl}-2-trifluoromethoxy-phenoxy)-acetic acid], the IC50 against PTRGER4 (EP4) (setting [1]) came out at 11 nM; against PTGER2 (EP2) (setting [2]), 10 nM.

Take `Cc1ccc(F)c2c1cc(C)n2CCNc1cc(-c2ccc(S(N)(=O)=O)c(C(F)(F)F)c2)ncn1` [compound 379]: the IC50 at PTRGER4 (EP4) (setting [3]) was found to be 354 nM; on PTGER2 (EP2) (setting [4]), 63 nM.

For `CCSc1cc(-c2cc(NCCn3c(C#N)cc4c(OC)ccc(F)c43)ncn2)ccc1C(=O)O` [Example 953, 4-{6-[2-(2-Cyano-7-fluoro-4-methoxy-indol-1-yl)-ethylamino]-pyrimidin-4-yl}-2-ethylsulfanyl-benzoic acid], the IC50 on PTRGER4 (EP4) (setting [1]) was 21 nM; at PTGER2 (EP2) (setting [2]), 5 nM.

As for `COc1ccc(F)c2c1cc(C)n2CCNc1cc(-c2cc(C(F)(F)F)c(-c3noc(=O)[nH]3)s2)ncn1` [Example 1062, 3-(5-{6-[2-(7-Fluoro-4-methoxy-2-methyl-indol-1-yl)-ethylamino]-pyrimidin-4-yl}-3-trifluoromethyl-thiophen-2-yl)-[1,2,4]oxadiazol-5(4H)-one], the IC50 on PTRGER4 (EP4) (setting [1]) was 13 nM; on PTGER2 (EP2) (setting [2]), 33 nM.

Consider `CCc1cc(-c2cc(NCCn3c(C)cc4c(OC)ccc(Cl)c43)ncn2)ccc1C(=O)O` [compound 288], for which the concentration for half-maximal inhibition (IC50) came out at 714 nM against PTRGER4 (EP4) (setting [3]) and 19 nM against PTGER2 (EP2) (setting [4]).

Take `Cc1ccc(F)c2c1cc(C)n2CCNc1cc(-c2ccc(-c3cc(N)no3)cc2)ncn1` [compound 189, {6-[4-(3-Amino-isoxazol-5-yl)-phenyl]-pyrimidin-4-yl}-[2-(7-fluoro-2,4-dimethyl-indol-1-yl)-ethyl]-amine]: the results for the IC50 on PTRGER4 (EP4) (setting [3]) and against PTGER2 (EP2) (setting [4]) were 106 nM and 19 nM, respectively.

Take `Cc1ccc(F)c2c1cc(C)n2CCNc1cc(-c2ccc3[nH]cnc3c2)ncn1` [compound 164]: the IC50 on PTRGER4 (EP4) (setting [3]) was determined as 520 nM; against PTGER2 (EP2) (setting [4]), 113 nM.

As for `Cc1cccc2c1cc(C)n2CCNc1cc(-c2ccc(C(=O)O)c(CCC(C)C)c2)ncn1` [compound 329, 4-{6-[2-(2,4-Dimethyl-indol-1-yl)-ethylamino]-pyrimidin-4-yl}-2-(3-methyl-butyl)-benzoic acid], the IC50 at PTRGER4 (EP4) (setting [3]) is 653 nM; against PTGER2 (EP2) (setting [4]), 27 nM.

As to `COc1ccc(F)c2c1cc(C#N)n2CCNc1cc(-c2ccnc(N)c2)ncn1` [Example 988, 1-{2-[6-(2-Amino-pyridin-4-yl)-pyrimidin-4-ylamino]-ethyl}-7-fluoro-4-methoxy-1H-indole-2-carbonitrile], the half-maximal inhibitory concentration (IC50) on PTRGER4 (EP4) (setting [1]) was found to be 197 nM; against PTGER2 (EP2) (setting [2]) it was 51 nM.

As to `COc1ccc(F)c2c1cc(C)n2CCNc1cc(-c2ccc(C(=O)O)c([N+](=O)[O-])c2)ncn1` [compound 394], the concentration for half-maximal inhibition (IC50) came out at 296 nM against PTRGER4 (EP4) (setting [3]) and 15 nM against PTGER2 (EP2) (setting [4]).

Consider `Cc1ccc(F)c2c1cc(C)n2CCNc1cc(-c2ccc(CO)c(Cl)c2)ncn1` [compound 20], for which the half-inhibitory concentration (IC50) was 328 nM against PTRGER4 (EP4) (setting [3]) and 94 nM against PTGER2 (EP2) (setting [4]).

Regarding `COc1cccc2c1cc(C)n2CCNc1cc(-c2ccc(S(N)(=O)=O)c(C(F)(F)F)c2)ncn1` [compound 380], the concentration for half-maximal inhibition (IC50) on PTRGER4 (EP4) (setting [3]) is 677 nM; against PTGER2 (EP2) (setting [4]), 58 nM.

Take `CCNc1cc(-c2cc(NCCn3c(C)cc4c(F)ccc(F)c43)ncn2)ccc1C(=O)O` [compound 243]: the values for the IC50 against PTRGER4 (EP4) (setting [3]) and at PTGER2 (EP2) (setting [4]) were 281 nM and 2 nM, respectively.

In the case of `COc1ccc(F)c2c1cc(C#N)n2CCNc1cc(-c2ccc3c(=O)[nH]n(C)c3c2)ncn1` [Example 921, 7-Fluoro-4-methoxy-1-{2-[6-(1-methyl-3-oxo-2,3-dihydro-1H-indazol-6-yl)-pyrimidin-4-ylamino]-ethyl}-1H-indole-2-carbonitrile], the IC50 turned out to be 9 nM at PTRGER4 (EP4) (setting [1]) and 6 nM against PTGER2 (EP2) (setting [2]).

As for `CCCOc1nc(-c2cc(NCCn3c(C)cc4c(OC)ccc(F)c43)ncn2)sc1C(=O)O` [Example 1035, 2-{6-[2-(7-Fluoro-4-methoxy-2-methyl-indol-1-yl)-ethylamino]-pyrimidin-4-yl}-4-propoxy-thiazole-5-carboxylic acid], the half-inhibitory concentration (IC50) at PTRGER4 (EP4) (setting [1]) was 29 nM; against PTGER2 (EP2) (setting [2]), 2 nM.

Take `COc1ccc(F)c2c1cc(C#N)n2CCNc1cc(-c2ccc3cc[nH]c3c2)ncn1` [Example 966, 7-Fluoro-1-{2-[6-(1H-indol-6-yl)-pyrimidin-4-ylamino]-ethyl)-4-methoxy-1H-indole-2-carbonitrile]: the concentration for half-maximal inhibition (IC50) came out at 31 nM at PTRGER4 (EP4) (setting [1]) and 14 nM against PTGER2 (EP2) (setting [2]).

Consider `COc1ccc(F)c2c1cc(C#N)n2CCNc1cc(-c2ccc(-c3cnc[nH]3)cc2)ncn1` [Example 829, 7-Fluoro-1-(2-{6-[4-(3H-imidazol-4-yl)-phenyl]-pyrimidin-4-ylamino}-ethyl)-4-methoxy-1H-indole-2-carbonitrile], for which the IC50 is 12 nM against PTRGER4 (EP4) (setting [1]) and 15 nM on PTGER2 (EP2) (setting [2]).

Take `COc1ccc(F)c2c1cc(C)n2CCNc1cc(-c2ccc3nc(C)oc3c2)ncn1` [compound 89]: the half-maximal inhibitory concentration (IC50) at PTRGER4 (EP4) (setting [3]) came out at 132 nM; against PTGER2 (EP2) (setting [4]), 115 nM.
